Here are results for 5 compounds from patent US20260240878A1, “PTP1B/TC-PTP DUAL INHIBITORS AND PROTEIN DEGRADERS” (Purdue Research Foundation, priority 2023, published 2026).

The target of test [1] is T1, PTP1B (Homo sapiens, UniProt P18031).
T1 sequence (P18031 1-435): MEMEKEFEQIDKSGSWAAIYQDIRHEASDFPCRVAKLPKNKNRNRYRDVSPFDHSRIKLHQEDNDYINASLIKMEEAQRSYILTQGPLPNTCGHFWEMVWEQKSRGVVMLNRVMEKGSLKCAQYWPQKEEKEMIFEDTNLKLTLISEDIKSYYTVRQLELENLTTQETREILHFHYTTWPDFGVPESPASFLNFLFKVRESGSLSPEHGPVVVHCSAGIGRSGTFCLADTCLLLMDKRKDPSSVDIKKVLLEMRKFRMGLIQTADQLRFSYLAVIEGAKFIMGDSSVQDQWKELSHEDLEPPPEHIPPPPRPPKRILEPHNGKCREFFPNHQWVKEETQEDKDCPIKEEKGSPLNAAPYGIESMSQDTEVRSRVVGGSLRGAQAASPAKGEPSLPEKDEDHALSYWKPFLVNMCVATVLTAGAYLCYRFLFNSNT
Briefly: PTP activity assay with pNPP substrate (IC50, Ki, mode of inhibition). Particulars: for IC50: pNPP 2 mM, pH 7.0, 25° C., read-out: IC50, nM PTP1B. Format: biochemical. Here is the method: (§1) PTP activity was assayed using p-nitrophenyl phosphate (pNPP) as a substrate in DMG buffer (50 mM DMG. pH 7.0, 1 mM EDTA, 150 mM NaCl, 2 mM DTT, 0.1 mg/mL BSA) at 25° C. The assays were performed in 96-well plates. Normally, to determine the IC50 values, the reaction was initiated by the addition of enzyme (for PTP1B and TCPTP, the final concentration was 0.4 nM, for other PTPs, the final concentration was 10 nM) to a reaction mixture (0.2 mL) containing 2 mM (Km for the substrate) pNPP with various concentrations of inhibitors (see FIG. 1). The reaction rate was measured using a SpectraMax Plus 384 Microplate Spectrophotometer (Molecular Devices). Data were fitted using SigmaPlot Enzyme Kinetics Module (Systat Software, Inc.). To determine the mode of inhibition, the reactions were initiated by the addition of enzyme (final concentration for TC-PTP and PTP1B was 0.4 nM) to the reaction mixtures (0.2 mL) containing various concentrations of pNPP with different concentrations of the inhibitor. Data were fitted using SigmaPlot Enzyme Kinetics Module (Systat Software. Inc.).

Test [2] concerns the target T2, TC-PTP (Homo sapiens, UniProt P17706).
T2 sequence (P17706 1-415): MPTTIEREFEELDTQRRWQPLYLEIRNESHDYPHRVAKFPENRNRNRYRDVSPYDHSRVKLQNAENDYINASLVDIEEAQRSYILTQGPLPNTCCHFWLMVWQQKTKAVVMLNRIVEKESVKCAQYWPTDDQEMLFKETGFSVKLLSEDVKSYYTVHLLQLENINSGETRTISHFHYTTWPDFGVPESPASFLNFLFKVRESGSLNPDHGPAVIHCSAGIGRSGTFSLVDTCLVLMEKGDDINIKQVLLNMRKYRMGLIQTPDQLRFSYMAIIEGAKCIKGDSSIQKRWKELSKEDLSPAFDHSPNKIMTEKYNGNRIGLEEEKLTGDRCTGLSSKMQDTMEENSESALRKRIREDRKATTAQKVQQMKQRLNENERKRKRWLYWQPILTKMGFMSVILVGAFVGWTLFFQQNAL
Described as above. It counts as biochemical. As to conditions: for IC50: pNPP 2 mM, pH 7.0, 25° C., read-out: IC50, nM TC-PTP. Here is the method:
as §1

Test [3] has as its target T1, PTP1B. Description: Degradation assay in HEK293 cells (immunoblotting). It counts as cell-based. The arrangement: Degradation assay was conducted in HEK293 cells with 1 μM degrader and 24 hours incubation; endogenous in cells; host or cells: HEK293. As to conditions: 1 μM degrader, 24 hours. Here is the method: (§2) HEK293. MIAPaCa-2, HepG2, U2OS, H116, MEF, B16F10, and MC38 cells, were grown in DMEM, while Jurkat and H358 cells were grown in RPMI 1640 supplemented with 10% fetal bovine serum, penicillin (50 units/mL), and streptomycin (50 μg/mL) in a 37° C. incubator containing 5% CO2. 20 ng/ml human (Biolegend #713906) or mouse (Biolegend #714006) Interferon-γ were used for JAK/STAT pathway stimulation.
(§3) Tissues or cultured cells were lysed with ice-cold lysis buffer (50 mM Tris (pH 8.0, 150 mM NaCl, 10% Glycerol, 1% Triton-X-100) supplied with phosphatase inhibitor (Bimake) and protease inhibitor mixture (Roche Applied Science). Equal amounts of protein were resolved by SDS-PAGE, transferred to nitrocellulose membrane, and subjected to immunoblotting. Antibodies used in this study include anti-following proteins: pSTAT1^Tyr701 (Cell Signaling Technology #9167, 1:3000), GAPDH (Cell Signaling Technology #97166, 1:5000), pJAK1^Tyr1034/1035 (Cell Signaling Technology #74129, 1:1000), pJAK2^Tyr1007/1008 (Cell Signaling Technology #3776, 1:1000), TC-PTP (Abcam #ab180764, 1:3000). PTP1B (Abcam #ab244207, 1:1500).
(§4) Degradation assay was conducted in HEK293 cells with 1 μM degrader and 24 hours incubation.
(§5) The degradation assay was conducted in HEK293 cells with 0.2 μM degrader and 16 hours incubation.
Background: In western blotting, separated proteins are transferred to a membrane and probed.

Test [4] concerns the target T2, TC-PTP. Briefly: Degradation assay in HEK293 cells (immunoblotting). Particulars: 1 μM degrader, 24 hours, read-out: % Protein Degradation TC-PTP. Also on record: Degradation assay was conducted in HEK293 cells with 1 μM degrader and 24 hours incubation; endogenous in cells; host or cells: HEK293. Format: cell-based. Here is the method: as §2, §3, §4, §5
For test [5], the target named is T1, PTP1B. Briefly: Degradation assay in HEK293 cells (immunoblotting). It counts as cell-based. The arrangement: endogenous in cells; host or cells: HEK293. As to conditions: 0.2 μM degrader, 16 hours. Here is the method:
as §2, §3, §4, §5

The target in test [6] is T2, TC-PTP. Description: Degradation assay in HEK293 cells (immunoblotting). Format: cell-based. Also on record: endogenous in cells; host or cells: HEK293. As to conditions: 0.2 μM degrader, 16 hours, read-out: % Protein Degradation TC-PTP. Here is the method: as §2, §3, §4, §5

Molecules are shown by their SMILES. *1 amine or outer side, *2 acyl side, *3 side chain or, on linkers, in order; H or OH if unused. Where a SMILES comes first, the peptide text is derived from it. [ ]: non-standard residue; d: D form. The star is where a group is joined. NHBn(4-(4-Me-thiazol-5-yl)) = Cc1ncsc1-c1ccc(CN*)cc1; F2Pmp = N[C@@H](Cc1ccc(C(F)(F)P(=O)(O)O)cc1)C(=O)O; Phenylacetyl(4-OH,3-OMe) = COc1cc(CC(=O)*)ccc1O; Benzoyl(3-Br,4-Me) = Cc1ccc(C(=O)*)cc1Br; Hyp = O=C(O)[C@@H]1C[C@@H](O)CN1; X2 = O=C(CCN1CCN([*:1])CC1)[*:2]; X3 = O=C(CCC1CCN([*:1])CC1)[*:2]; dHyp = O=C(O)[C@H]1C[C@H](O)CN1; dTle = CC(C)(C)[C@@H](N)C(=O)O; Tle = CC(C)(C)[C@H](N)C(=O)O; 4Amb = NCc1ccc(C(=O)O)cc1; Ava = NCCCCC(=O)O

A word on the IC50: it is the midpoint of a concentration-inhibition curve. Take `COc1cc(CC(=O)N[C@@H](Cc2ccccc2)C(=O)N[C@@H](Cc2ccc(C(F)(F)P(=O)(O)O)cc2)C(=O)N[C@@H](CCCCNC(=O)c2ccc(C)c(Br)c2)C(=O)NCCCCC(=O)N[C@@H](C(=O)N2C[C@@H](O)C[C@@H]2C(=O)NCc2ccc(-c3scnc3C)cc2)C(C)(C)C)ccc1O` [Compound 6, ((4-((S)-3-(((S)-6-(3-bromo-4-methylbenzamido)-1-((5-(((R)-1-((2R,4S)-4-hydroxy-2-((4-(4-methylthiazol-5-yl)benzyl)carbamoyl)pyrrolidin-1-yl)-3,3-dimethyl-1-oxobutan-2-yl)amino)-5-oxopentyl)amino)-1-oxohexan-2-yl)amino)-2-((S)-2-(2-(4-hydroxy-3-methoxyphenyl)acetamido)-3-phenylpropanamido)-3-oxopropyl)phenyl)difluoromethyl)phosphonic Acid] ({Phenylacetyl(4-OH,3-OMe)}-F[F2Pmp]K(Benzoyl(3-Br,4-Me))[Ava][dTle][dHyp]-{NHBn(4-(4-Me-thiazol-5-yl))}): the results for the IC50 in test [1] and in test [2] were 29.4 ± 2.1 nM and 34.3 ± 14.8 nM, respectively. In addition, the “% Protein Degradation PTP1B” value in test [3] is 53%. For the same compound, in test [4], the percent TC-PTP degradation at 1 µM is 58%.

Regarding `COc1cc(CC(=O)N[C@@H](Cc2ccccc2)C(=O)N[C@@H](Cc2ccc(C(F)(F)P(=O)(O)O)cc2)C(=O)N[C@@H](CCCCNC(=O)c2ccc(C)c(Br)c2)C(=O)NCc2ccc(C(=O)N[C@H](C(=O)N3C[C@H](O)C[C@H]3C(=O)NCc3ccc(-c4scnc4C)cc3)C(C)(C)C)cc2)ccc1O` [Compound 54, ((4-((S)-3-(((S)-6-(3-bromo-4-methylbenzamido)-1-((4-(((S)-1-((2S,4R)-4-hydroxy-2-((4-(4-methylthiazol-5-yl)benzyl)carbamoyl)pyrrolidin-1-yl)-3,3-dimethyl-1-oxobutan-2-yl)carbamoyl)benzyl)amino)-1-oxohexan-2-yl)amino)-2-((S)-2-(2-(4-hydroxy-3-methoxyphenyl)acetamido)-3-phenylpropanamido)-3-oxopropyl)phenyl)difluoromethyl)phosphonic Acid] ({Phenylacetyl(4-OH,3-OMe)}-F[F2Pmp]K(Benzoyl(3-Br,4-Me))[4Amb][Tle][Hyp]-{NHBn(4-(4-Me-thiazol-5-yl))}), the IC50 was determined as 51.2 ± 14.4 nM in test [1] and 21.3 ± 1.7 nM in test [2]. Also, the “% Protein Degradation PTP1B” value in test [5] is 24%. Further, the percent TC-PTP degradation at 0.2 µM in test [6] was 37%.

On to `COc1cc(CC(=O)N[C@@H](Cc2ccccc2)C(=O)N[C@@H](Cc2ccc(C(F)(F)P(=O)(O)O)cc2)C(=O)N[C@@H](CCCCNC(=O)c2ccc(C)c(Br)c2)C(=O)N2CCN(CCC(=O)N[C@H](C(=O)N3C[C@H](O)C[C@H]3C(=O)NCc3ccc(-c4scnc4C)cc3)C(C)(C)C)CC2)ccc1O` [Compound 56, ((4-((S)-3-(((S)-6-(3-bromo-4-methylbenzamido)-1-(4-(3-(((S)-1-((2S,4R)-4-hydroxy-2-((4-(4-methylthiazol-5-yl)benzyl)carbamoyl)pyrrolidin-1-yl)-3,3-dimethyl-1-oxobutan-2-yl)amino)-3-oxopropyl)piperazin-1-yl)-1-oxohexan-2-yl)amino)-2-((S)-2-(2-(4-hydroxy-3-methoxyphenyl)acetamido)-3-phenylpropanamido)-3-oxopropyl)phenyl)difluoromethyl)phosphonic Acid] ({Phenylacetyl(4-OH,3-OMe)}-F[F2Pmp]K(Benzoyl(3-Br,4-Me))[X2][Tle][Hyp]-{NHBn(4-(4-Me-thiazol-5-yl))}), for which the IC50 in test [1] was found to be 13.7 ± 1.9 nM; in test [2], 12 ± 0.8 nM. For the same compound, in test [5], the “% Protein Degradation PTP1B” value amounted to 30%. The percent TC-PTP degradation at 0.2 µM in test [6] is 14%.

Take `COc1cc(CC(=O)N[C@@H](Cc2ccccc2)C(=O)N[C@@H](Cc2ccc(C(F)(F)P(=O)(O)O)cc2)C(=O)N[C@@H](CCCCNC(=O)c2ccc(C)c(Br)c2)C(=O)N2CCC(CCC(=O)N[C@H](C(=O)N3C[C@H](O)C[C@H]3C(=O)NCc3ccc(-c4scnc4C)cc3)C(C)(C)C)CC2)ccc1O` [Compound 58, ((4-((S)-3-(((S)-6-(3-bromo-4-methylbenzamido)-1-(4-(3-(((S)-1-((2S,4R)-4-hydroxy-2-((4-(4-methylthiazol-5-yl)benzyl)carbamoyl)pyrrolidin-1-yl)-3,3-dimethyl-1-oxobutan-2-yl)amino)-3-oxopropyl)piperidin-1-yl)-1-oxohexan-2-yl)amino)-2-((S)-2-(2-(4-hydroxy-3-methoxyphenyl)acetamido)-3-phenylpropanamido)-3-oxopropyl)phenyl)difluoromethyl)phosphonic Acid] ({Phenylacetyl(4-OH,3-OMe)}-F[F2Pmp]K(Benzoyl(3-Br,4-Me))[X3][Tle][Hyp]-{NHBn(4-(4-Me-thiazol-5-yl))}): the IC50 in test [1] worked out at 8.9 ± 0.5 nM; in test [2] it was 8 ± 0.7 nM. The “% Protein Degradation PTP1B” value in test [5] is on record as 26%. For the same compound, the percent TC-PTP degradation at 0.2 µM in test [6] came out at 32%.

For orientation: Ki means the dissociation constant of the complex between target and ligand, obtained from inhibition or displacement. A high value points to weaker binding. With `COc1cc(CC(=O)N[C@@H](Cc2ccccc2)C(=O)N[C@@H](Cc2ccc(C(F)(F)P(=O)(O)O)cc2)C(=O)N[C@@H](CCCCNC(=O)c2ccc(C)c(Br)c2)C(N)=O)ccc1O` [Example 7, ((4-((S)-3-(((S)-1-amino-6-(3-bromo-4-methylbenzamido)-1-oxohexan-2-yl)amino)-2-((S)-2-(2-(4-hydroxy-3-methoxyphenyl)acetamido)-3-phenylpropanamido)-3-oxopropyl)phenyl)difluoromethyl)phosphonic Acid], the results for the inhibition constant Ki in test [1] (PTP1B-catalyzed pNPP hydrolysis) and in test [2] (TC-PTP catalyzed pNPP hydrolysis) were 2.4 nM and 3.6 nM, respectively. In addition, the results for the half-maximal inhibitory concentration (IC50) in test [1] and in test [2] were 4.7 ± 0.3 nM and 7.1 ± 0.4 nM, respectively. Moreover, the percent TC-PTP degradation at 0.2 µM in test [6] came to 0%. Moreover, the percent TC-PTP degradation at 1 µM in test [4] was 0%.
